According to patent publication US9862748B2, “Peptide compounds and methods of production and use thereof” (priority 2012, dated 2018):

Experiments:
swine skin wounds = test: Swine dermal wound model, histological evaluation; type: in vivo; conditions: day 14 post-wounding
Experimental: The characteristics that were measured are required to indicate features of a well-healed wound. Inflammation should be low and re-epithelialization high.
Full thickness excisional wounds were induced on the dorsum of swine (N=3) using a 1.0 cm biopsy punch. Treatments were administered (0.20 ml) to each wound (N=6 wounds per group), and the wounds were dressed with standard occlusive dressing ([…]™, 3M Corporation, St. Paul, Minn.). Treatments were reapplied daily and dressings changed. Clinical wound healing observations and wound area (2 mm) measurements were performed on days 0, 3, 5, 7, 10, and 14 post-wounding. Wound area (2 mm) data were expressed as percentage (%) of wound healing. Animals were terminated on day 14 with wounds harvested and processed for histological evaluation. […] All peptide formulation treatment groups healed faster with greater rate of closure and re-epithelialization over time, as compared to the saline control (Group A).
The histology correlated with the clinical observations. […] There were minimal differences in the amount or character of granulation tissue, inflammation, and angiogenesis. All the wounds were well filled and vascularized.

[1] = test system: mouse cornea (corneal epithelial abrasion); test: In vivo model of corneal wound healing; conditions: treated at 0 and 16 hours; 95-122 10^−5 M; 120-146WH 10^−8 M or 10^−6 M; HB-EGF 250 ng/ml
Experimental: The in vivo model of wound healing was carried out using a disposable biopsy punch (2 mm, Miltex, York, Pa.) to demarcate the mouse cornea and a 0.5 mm burr using the AlgerBrush II (The Alger Company, Inc., Lago Vista, Tex.) to remove the corneal epithelium.
Mice were anesthetized using ketamine (100 mg/kg; Bionichepharma, LLC., St. Lake Forrest, Ill.) and xylazine ([…]; Rompun; Bayer Corp., Shawnee Mission, Kans.), and the right cornea was wounded as follows. A disposable biopsy punch (2 mm, Miltex, York, Pa.) was used to demarcate the mouse cornea. The corneal epithelium was carefully removed within the 2 mm demarcated area with a 0.5 mm burr using the AlgerBrush II (The Alger Company, Inc., Lago Vista, Tex.). The corneal abrasions were treated at 0 and 16 hours with HB-EGF (250 ng/ml), rCAP37 (250 ng/ml), or vehicle control (0.9% sodium chloride, pH 5.5, Baxter, Deerfield, Ill.). Corneal abrasions were visualized using sterile fluorescein sodium ophthalmic strips USP (FLUORETS®, Chauvin Laboratory, Aubenas, France) dampened with sterile PBS. Images were taken at 0, 16, 24, and 48 hours immediately following fluorescein staining using a surgical microscope equipped with a camera (Carl Zeiss OPMI VISU 140, Carl Zeiss Surgical, Inc., Oberkochen, Germany). The areas of the open wound were quantitated using ImageJ software (US National Institutes of Health), and the results were reported as the percentage of wound closure.
Whole mouse eyes were collected for histology at 0, 6, 16, 24, and 48 hours post wounding and were immediately placed in Prefer fixative (Anatech LTD., Battle Creek, Mich.) for 20 minutes before being transferred to 70% ethanol. Tissues were paraffin-embedded and cut at a thickness of 5 μm, mounted on SUPERFROSTPLUS® slides (Statlab Medical Products, Lewisville, Tex.), and subsequently deparaffinized, rehydrated, and washed in deionized water. Sections were stained with hematoxylin (Leica Microsystems, Buffalo Grove, Ill.) and rinsed twice in deionized water before being washed in Blue Buffer (Leica Microsystems). The sections were finally washed in deionized water and 95% ethanol prior to being counterstained with eosin (Leica Microsystems). Sections were dehydrated in ethanol and cleared in xylene.

[2] = test system: Acinetobacter baumannii ATCC® BAA-747™; type: cell-based; conditions: 3.12-25 μM; 60 minutes
Procedure, shortened: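 Peptides at 25, 12.5, 6.25 and 3.12 μM were incubated with 1×10^6 CFU/ml bacteria at pH 5.5 or 7.2, with tryptone saline as negative control and gentamicin (4 μg/ml) as positive control. Incubation was 60 min for A. baumannii and 180 min for P. aeruginosa. Surviving CFU counted after overnight plating, expressed as log reduction in CFU/ml.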

Sequence: LDREANLTSSVTILPLPLQNATVEAGTR (listed as Homo sapiens) [Peptide 95-122]
- epidermal resurfacing and maturation of the epidermis versus saline control (swine skin wounds): greater extent of epidermal resurfacing and maturation of the epidermis
- Histopathology Results, Mean Angiogenesis (swine skin wounds; 3 mg/ml): 2.3
- Histopathology Results, Mean Epithelization (swine skin wounds; 3 mg/ml): 4.0
- Histopathology Results, Mean Granulation (swine skin wounds; 3 mg/ml): 4.0
- Histopathology Results, Mean Inflammation (swine skin wounds; 3 mg/ml): 0.5
- corneal wound healing versus vehicle [1]: promotes corneal wound healing
- activity against Acinetobacter at either pH (5.5, 7.2) [2]: not active
